Source: PMC3430861, “The pharmacological profile of ELIC, a prokaryotic GABA-gated receptor” (Neuropharmacology, 2012)
Like-named read-outs stand apart in the source and are kept apart here.

How the values were obtained:
[1] = target: T1, ELIC (Dickeya chrysanthemi, UniProt P0C7B7, INS163G); experiment: cell-based; type: cell-based, Erwinia chrysanthemi; conditions: for EC50: read-out: pEC50 (EC50): agonist effect at the concentration shown (converted)
T1 construct: expressed in transfected cells; host or cells: Xenopus laevis oocytes injected with cRNA
Method: Xenopus laevis oocyte-positive females were purchased from NASCO (Fort Atkinson, Wisconsin, USA) and maintained according to standard methods.
(§1) The ELIC sequence (Genbank accession number POC7B7) was purchased from Genscript as a synthetic gene with optimized codon usage for expression in Escherichia coli. […] Stage V and VI oocytes were injected with 20 ng cRNA, and currents recorded 1–3 days post-injection.

[2] = target: RDL, a GABA-activated insect receptor; design: method as in McGonigle and Lummis, 2010; conditions: ref McGonigle and Lummis, 2010, cited from earlier work
[3] = target: T2, ELIC (Dickeya chrysanthemi, UniProt P0C7B7); experiment: cell-based; type: cell-based, Erwinia chrysanthemi
T2 sequence (P0C7B7 8-321): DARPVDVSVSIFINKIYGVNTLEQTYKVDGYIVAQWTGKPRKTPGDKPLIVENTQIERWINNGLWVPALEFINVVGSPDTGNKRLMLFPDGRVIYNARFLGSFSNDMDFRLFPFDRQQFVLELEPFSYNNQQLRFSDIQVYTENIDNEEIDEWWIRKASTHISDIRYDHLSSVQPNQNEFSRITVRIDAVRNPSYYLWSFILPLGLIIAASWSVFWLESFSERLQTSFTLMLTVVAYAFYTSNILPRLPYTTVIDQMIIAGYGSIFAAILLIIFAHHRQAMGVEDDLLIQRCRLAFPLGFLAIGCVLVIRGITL
Method: Xenopus laevis oocyte-positive females were purchased from NASCO (Fort Atkinson, Wisconsin, USA) and maintained according to standard methods. Harvested stage V–VI Xenopus oocytes were washed in four changes of ND96 (96 mM NaCl, 2 mM KCl, 1 mM MgCl2, 5 mM HEPES, pH 7.5), de-folliculated in 1.5 mg ml^−1 collagenase Type 1A for approximately 2 h, washed again in four changes of ND96 and stored in ND96 containing 2.5 mM sodium pyruvate, […], 0.7 mM theophylline.
as §1

[4] = tested on: GLIC; design: method as in Alqazzaz et al., 2011; conditions: ref Alqazzaz et al., 2011, cited from earlier work; for inhibition of GLIC (yes/no): comparison ELIC vs GLIC
[5] = target: T2, ELIC; experiment: Inhibition of cysteamine-induced ELIC responses; type: cell-based, Erwinia chrysanthemi; conditions: data not shown
[6] = Hill coefficient of inhibition curve

NCCCCC(=O)O [5-aminovaleric acid]
concentration required to activate ELIC [1]: > 10 mM
EC50 ([2]; RDL): 1100 µM
Rmax ([2]; RDL): 0.85

NC12CC3CC(CC(C3)C1)C2 [Amantadine]
inhibition of ELIC (yes/no) [3]: inhibiting both receptors
nH [3, 6]: 2.5 ± 0.4
IC50 ([3]; IC50): 370 µM
IC50 ([3]; pIC50 (Mean ± SEM)): 372 µM
inhibition of GLIC (yes/no) [4]: inhibiting both receptors

CN(C)CCCN1c2ccccc2Sc2ccc(Cl)cc21 [Chlorpromazine]
inhibition of ELIC (yes/no) [3]: inhibiting both receptors
nH [3]: 1.2 ± 0.4
IC50 ([3]; IC50): 230 µM
IC50 ([3]; pIC50 (Mean ± SEM)): 229 µM
inhibition of GLIC (yes/no) [4]: inhibiting both receptors

N#Cc1nn(-c2c(Cl)cc(C(F)(F)F)cc2Cl)c(N)c1[S+]([O-])C(F)(F)F (stereo not drawn) [Fipronil]
inhibition of ELIC (yes/no) [3]: inhibiting both receptors
nH [3]: 1.8 ± 0.4
IC50 ([3]; IC50): 350 µM
IC50 ([3]; pIC50 (Mean ± SEM)): 347 ± 4.01 µM
inhibition of GLIC (yes/no) [4]: inhibiting both receptors

NC(=O)CC[C@H](N)C(=O)O [Glutamine]
effect on ELIC (agonist test) ([1]; 1 mM): no effect
effect when co-applied in the presence of GABA [3]: no effect

N[C@@H](Cc1c[nH]cn1)C(=O)O [Histidine]
effect on ELIC (agonist test) ([1]; 1 mM): no effect
effect when co-applied in the presence of GABA [3]: no effect

N[C@@H](Cc1ccccc1)C(=O)O [Phenylalanine]
effect on ELIC (agonist test) ([1]; 1 mM): no effect

C=C(C)[C@@H]1[C@H]2OC(=O)[C@@H]1[C@]1(O)C[C@H]3O[C@]34C(=O)O[C@H]2[C@]14C [Picrotoxinin]
nH [3, 6]: 1.2 ± 0.6
IC50 ([3]; IC50, wild type ELIC, at the GABA EC50 (1.6 mM)): 96 µM
inhibition of ELIC (yes/no) ([3]; comparison ELIC vs GLIC): inhibiting both receptors
IC50 ([3]; pIC50 (Mean ± SEM), wild type ELIC, at the GABA EC50 (1.6 mM)): 87.1 µM
inhibition of cysteamine-induced responses compared to inhibition of GABA-induced responses [5]: no significant differences
inhibition of GLIC (yes/no) [4]: inhibiting both receptors

O=C(O)[C@@H]1CCCN1 [Proline]
effect on ELIC (agonist test) ([1]; 1 mM): no effect
effect when co-applied in the presence of GABA [3]: no effect

CC(N)C12CC3CC(CC(C3)C1)C2 (stereo not drawn) [Rimantadine]
inhibition of ELIC (yes/no) [3]: inhibiting both receptors
nH [3]: 1.0 ± 0.2
IC50 ([3]; IC50): 54 µM
IC50 ([3]; pIC50 (Mean ± SEM)): 53.7 µM
inhibition of cysteamine-induced responses compared to inhibition of GABA-induced responses [5]: no significant differences
inhibition of GLIC (yes/no) [4]: inhibiting both receptors

N[C@@H](CO)C(=O)O [Serine]
effect on ELIC (agonist test) ([1]; 1 mM): no effect

C[C@@H](O)[C@H](N)C(=O)O [Threonine]
effect on ELIC (agonist test) ([1]; 1 mM): no effect

N[C@@H](Cc1c[nH]c2ccccc12)C(=O)O [Tryptophan]
effect on ELIC (agonist test) ([1]; 1 mM): no effect

N[C@@H](Cc1ccc(O)cc1)C(=O)O [Tyrosine]
effect on ELIC (agonist test) ([1]; 1 mM): no effect
effect when co-applied in the presence of GABA [3]: no effect

CC(C)[C@H](N)C(=O)O [Valine]
effect on ELIC (agonist test) ([1]; 1 mM): no effect

NCc1cc(=O)[nH]o1 [muscimol]
effect on ELIC (agonist test) ([1]; 30 μM): no effect

O=C(O)[C@@H]1CCC(O)=N1 [pyroglutamate]
effect on ELIC (agonist test) ([1]; 10 mM): did not activate ELIC

O=C([O-])CCC(=O)[O-].[Na+].[Na+] [sodium succinate]
effect on ELIC (agonist test) ([1]; 10 mM): did not activate ELIC
EC50 ([1]; 10 mM): > 10000 µM

O=C(O)CCC(=O)O [succinic acid]
effect on ELIC (agonist test) ([1]; 10 mM): did not activate ELIC

CCC(N)C(=O)O (stereo not drawn) [α-aminobutyrate]
effect on ELIC (agonist test) ([1]; 10 mM): did not activate ELIC
EC50 ([1]; 10 mM): > 10000 µM

O=S1OC[C@@H]2[C@H](CO1)[C@@]1(Cl)C(Cl)=C(Cl)[C@]2(Cl)C1(Cl)Cl (stereo partly drawn) [α-endosulfan]
nH [3]: 0.7 ± 0.2
IC50 ([3]; IC50): 17 µM
IC50 ([3]; pIC50 (Mean ± SEM)): 17 µM
IC50 ([4]; GLIC): 17 µM

O=C(O)CCC(=O)C(=O)O [α-ketoglutarate]
effect on ELIC (agonist test) ([1]; 10 mM): did not activate ELIC
EC50 ([1]; 10 mM): > 10000 µM

NCCC(=O)O [β-alanine]
effect on ELIC (agonist test) ([1]; 10 mM): no effect

O=C1CCCO1 [γ-butyrolactone]
effect on ELIC (agonist test) ([1]; 10 mM): did not activate ELIC

O=C(O)CCCO [γ-hydroxybutyric acid]
concentration required to activate ELIC [1]: > 10 mM
% of Rmax at 100 mM ([1]; 100 mM, Rmax = maximal current relative to 10mM GABA): 8.2 ± 3% of Rmax at 100 mM
effect on RDL [2]: no effect

α-amino hydroxbutyric acid
effect on ELIC (agonist test) ([1]; 10 mM): no effect
EC50 ([1]; 10 mM): > 10000 µM
